Laboratory results: article PMC9673142, “1,3-Diarylpyrazolyl-acylsulfonamides Target HadAB/BC Complex in Mycobacterium tuberculosis” (ACS Infectious Diseases, 2022)
Values after ≈ are worked out from the molar mass of the structure shown.

What was measured:
[1] = system: EthA mutant (C253R) of Mtb; settings: cited from earlier work
Mtb/pNIP40b-hadABC = assay: microbe, parasite or virus in culture; assay type: cell-based; settings: Mycobacterium tuberculosis, read-out: MIC Mtb/pNIP40b-hadABC
[2] = system: compound 1-resistant Mtb mutants (SRM59, Rv0637/hadC:K157R); assay type: cell-based, Mycobacterium tuberculosis

CC(C)CCOc1ccc(NC(=S)Nc2ccc(OCCC(C)C)cc2)cc1 [ISO, isoxyl, reference compound]
resistance of EthA mutant (C253R) [1]: 4–8 folds

O=c1[nH]nc(CCc2cn(-c3ccc(Br)cc3)nc2-c2ccc(Cl)cc2)o1 [Compound 12]
MIC (Mtb/pNIP40b-hadABC): 12.5 µM (≈ 5.57 µg/mL)

O=C(O)CCc1cn(-c2ccc(Br)cc2)nc1-c1ccc(Cl)cc1 [Compound 10]
MIC (Mtb/pNIP40b-hadABC): 3 µM (≈ 1.22 µg/mL)

CS(=O)(=O)NC(=O)CCc1cn(-c2ccc(Cl)cc2)nc1-c1ccc(Cl)cc1 [Compound 2]
MIC (Mtb/pNIP40b-hadABC): 2.5 µM (≈ 1.1 µg/mL) | change in MIC against EthA mutant (C253R) [1]: no change

CCc1c(COC(=O)NS(C)(=O)=O)c(-c2ccc(Cl)cc2)nn1-c1ccc(Cl)cc1 [Compound 15]
MIC (Mtb/pNIP40b-hadABC): 7.8 µM (≈ 3.65 µg/mL)

CS(=O)(=O)NC(=O)CCc1cn(-c2ccc(Br)cc2)nc1-c1ccncc1 [Compound 1]
Compound 1 MIC, SRM59-1 [2]: 50 to 100 µM | Compound 1 MIC, SRM59-2 [2]: 50 to 100 µM | Compound 1 MIC, SRM59-3 [2]: 50 to 100 µM | change in MIC against EthA mutant (C253R) [1]: no change

CS(=O)(=O)NC(=O)NCc1cn(-c2ccc(C(F)(F)F)nc2)nc1-c1ccncc1 [Compound 11]
MIC (Mtb/pNIP40b-hadABC): > 40 µM

CS(=O)(=O)c1nnc(Cc2cn(-c3ccc(Cl)cc3)nc2-c2ccncc2)o1 [Compound 13]
MIC (Mtb/pNIP40b-hadABC): 1.9 µM (≈ 0.79 µg/mL)

CC(=O)Nc1ccc(/C=N/NC(N)=S)cc1 [TAC, thioacetazone, reference compound]
resistance of EthA mutant (C253R) [1]: 4–8 folds
